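Cultured in 96-well plates, cells were exposed to test compound for 48 hours across five concentrations. At the TGI there is no net growth.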
Columns and labels:
Test in all cases: inhibition of tumour cell growth, NCI panel, 48 h
UO-31 renal = test system: UO-31 renal
SNB-75 CNS = test system: SNB-75 CNS
SF-295 CNS = test system: SF-295 CNS
A549 NSCLC = test system: A549 NSCLC
OVCAR-8 ovarian = test system: OVCAR-8 ovarian
NCI-H460 lung = test system: NCI-H460 lung
ACHN renal = test system: ACHN renal
DU-145 prostate = test system: DU-145 prostate
EKVX NSCLC = test system: EKVX NSCLC
NCI/ADR-RES ovarian = test system: NCI/ADR-RES ovarian
RXF 393 renal = test system: RXF 393 renal
MDA-MB-231 breast = test system: MDA-MB-231 breast
MALME-3M melanoma = test system: MALME-3M melanoma
NCI-H226 lung = test system: NCI-H226 lung
TK-10 renal = test system: TK-10 renal
UACC-62 melanoma = test system: UACC-62 melanoma
SK-OV-3 ovarian = test system: SK-OV-3 ovarian
UACC-257 melanoma = test system: UACC-257 melanoma
K-562 leukemia = test system: K-562 leukemia
PC-3 prostate = test system: PC-3 prostate
SF-539 CNS = test system: SF-539 CNS
SK-MEL-28 melanoma = test system: SK-MEL-28 melanoma
HCT-15 colon = test system: HCT-15 colon
COLO 205 colon = test system: COLO 205 colon
IGROV1 ovarian = test system: IGROV1 ovarian
HCT-116 colon = test system: HCT-116 colon
NCI-H522 lung = test system: NCI-H522 lung
MDA-MB-435 = test system: MDA-MB-435
KM12 colon = test system: KM12 colon
HT29 colon = test system: HT29 colon
SK-MEL-5 melanoma = test system: SK-MEL-5 melanoma
RPMI-8226 leukemia = test system: RPMI-8226 leukemia
OVCAR-4 ovarian = test system: OVCAR-4 ovarian
SW-620 colon = test system: SW-620 colon
OVCAR-5 ovarian = test system: OVCAR-5 ovarian
SF-268 CNS = test system: SF-268 CNS
BT-549 breast = test system: BT-549 breast
HCC-2998 colon = test system: HCC-2998 colon
U251 CNS = test system: U251 CNS
786-0 renal = test system: 786-0 renal
NCI-H23 lung = test system: NCI-H23 lung
HOP-62 NSCLC = test system: HOP-62 NSCLC
MOLT-4 leukemia = test system: MOLT-4 leukemia
SN12C renal = test system: SN12C renal
HOP-92 NSCLC = test system: HOP-92 NSCLC
T-47D breast = test system: T-47D breast
OVCAR-3 ovarian = test system: OVCAR-3 ovarian
CCRF-CEM leukemia = test system: CCRF-CEM leukemia
A498 renal = test system: A498 renal
CAKI-1 renal = test system: CAKI-1 renal
MCF7 breast = test system: MCF7 breast
HS 578T breast = test system: HS 578T breast
M14 melanoma = test system: M14 melanoma
SNB-19 CNS = test system: SNB-19 CNS
SR leukemia = test system: SR leukemia
SK-MEL-2 melanoma = test system: SK-MEL-2 melanoma

CCCCCCCCCCCCC1N=C(N)NC2(CCCO2)C1C(=O)OC (stereo unspecified)
TGI (UO-31 renal): 32.2 µM | TGI (SNB-75 CNS): 7.99 µM | TGI (SF-295 CNS): 24.7 µM | TGI (A549 NSCLC): 30.9 µM | TGI (OVCAR-8 ovarian): 23.3 µM | TGI (NCI-H460 lung): 8.23 µM | TGI (ACHN renal): 25.2 µM | TGI (DU-145 prostate): 33.2 µM | TGI (EKVX NSCLC): 36.6 µM | TGI (NCI/ADR-RES ovarian): 42.9 µM | TGI (RXF 393 renal): 6.12 µM | TGI (MDA-MB-231 breast): 13.3 µM | TGI (MALME-3M melanoma): 38 µM | TGI (NCI-H226 lung): 36.9 µM | TGI (TK-10 renal): 15.5 µM | TGI (UACC-62 melanoma): 14.8 µM | TGI (SK-OV-3 ovarian): 23.8 µM | TGI (UACC-257 melanoma): 19 µM | TGI (K-562 leukemia): 5.25 µM | TGI (PC-3 prostate): 8.57 µM | TGI (SF-539 CNS): 15.8 µM | TGI (SK-MEL-28 melanoma): 21.6 µM | TGI (HCT-15 colon): 42.9 µM | TGI (COLO 205 colon): 10.9 µM | TGI (IGROV1 ovarian): 6.72 µM | TGI (HCT-116 colon): 7.32 µM | TGI (NCI-H522 lung): 9.7 µM | TGI (MDA-MB-435): 15.6 µM | TGI (KM12 colon): 3.34 µM | TGI (HT29 colon): 3.48 µM | TGI (SK-MEL-5 melanoma): 23.7 µM | TGI (RPMI-8226 leukemia): 5.53 µM | TGI (OVCAR-4 ovarian): 26.4 µM | TGI (SW-620 colon): 7.65 µM | TGI (OVCAR-5 ovarian): 22.1 µM | TGI (SF-268 CNS): 14.8 µM | TGI (BT-549 breast): 18.5 µM | TGI (HCC-2998 colon): > 39.5 µM | TGI (U251 CNS): 3.2 µM | TGI (786-0 renal): 16.9 µM | TGI (NCI-H23 lung): 18.2 µM | TGI (HOP-62 NSCLC): 23.8 µM | TGI (MOLT-4 leukemia): 5.3 µM | TGI (SN12C renal): 34.2 µM | TGI (HOP-92 NSCLC): 17.2 µM | TGI (T-47D breast): 27.7 µM | TGI (OVCAR-3 ovarian): 13.2 µM | TGI (CCRF-CEM leukemia): 5.83 µM | TGI (A498 renal): 47.7 µM | TGI (CAKI-1 renal): 30.6 µM | TGI (MCF7 breast): 9.2 µM | TGI (HS 578T breast): 8.89 µM | TGI (M14 melanoma): 16.6 µM | TGI (SNB-19 CNS): 9.92 µM | TGI (SR leukemia): > 20.9 µM | TGI (SK-MEL-2 melanoma): 20.9 µM

Source: PubChem BioAssay (NCI)
